Laboratory results from US20220132857A1, “Disinfecting Composition and Related Methods” (priority 2020, published 2022).
Like-named read-outs stand apart in the source and are kept apart here.

How the values were obtained:
Pseudomonas Aeruginosa = conditions: within 5 minutes of contact time; cited from earlier work
Staphylococcus Aureus = conditions: within 5 minutes of contact time; cited from earlier work
[1] = system: residual ATP (ATP-containing contamination including bacteria); test: ATP bioluminescence disinfection efficacy on polyester fabric contaminated with collected water; conditions: 5 ml dropwise, after 5 minutes, before treatment Area 1: 243, Area 2: 291
Source text: Bioluminescence is a practical and simple method used to quickly assess the bio-contamination of surfaces. The method has been developed based on the biochemical adenosine triphosphate (“ATP”), which is the energy molecule of all the living organisms, luciferin/luciferase, and oxygen. The reaction results in a light-emitting decay which can be detected and related to the amount of ATP.
The luminometer (in conjunction with ATP swabs) uses bioluminescence to detect residual ATP as an indicator of surface cleanliness. The presence of ATP on a surface indicates incomplete cleaning and the presence of ATP-containing contamination including bacteria.
Test results are presented as Relative Light Units (“RLU”). RLU is the unit of measurement used in bioluminescence. When a test swab is activated, a bioluminescent reaction occurs, generating light output. Luminometers measure and quantify that light with an RLU output. […]
The relationship between the amount of ATP on the sample and the RLU result reading on the luminometer is directly proportional to the amount of ATP collected from the sample. A high RLU reading indicates a large amount of ATP at the test location. […]
Cleaning properly results in less ATP at the location. Less ATP results in less light output during the bioluminescent reaction and consequently, a lower RLU reading. […]

[2] = system: residual ATP (ATP-containing contamination including bacteria); conditions: granite tile, 3 ml soaked through paper towel, after 5 minutes; before treatment Area 1: 1057, Area 2: 998
Source text: Therefore, the surfaces to be evaluated had to be thoroughly cleaned and tested for contamination prior to commencing the test.
Test results are presented as Relative Light Units (“RLU”). RLU is the unit of measurement used in bioluminescence. When a test swab is activated, a bioluminescent reaction occurs, generating light output. Luminometers measure and quantify that light with an RLU output.
A high RLU reading indicates a large amount of ATP at the test location. This in turn indicates improper cleaning and the presence of contaminants.
Cleaning properly results in less ATP at the location. Less ATP results in less light output during the bioluminescent reaction and consequently, a lower RLU reading.
A granite floor tile was selected and thoroughly disinfected with hot water and a cocktail of disinfectants. It was then tested for ATP until the readings consistently indicated RLU of 0-2 which represented a surface free of ATP within the margins of error.
A sample of seemingly contaminated water was collected from a pond and left stagnant for solid settlement for 3 days.
The granite tile was covered with a paper towel and the water was added to the towel in a dropwise manner until it was completely soaked. After a few hours, soaking was repeated, and the specimen was left to dry overnight. […]

## OO [0.6 wt. % hydrogen peroxide solution, hydrogen peroxide]
Pseudomonas Aeruginosa
  reduction against Pseudomonas Aeruginosa: < 1 Log
Staphylococcus Aureus
  reduction against Staphylococcus Aureus: ~1 Log

## OO [6 weight percent hydrogen peroxide solution]
Pseudomonas Aeruginosa
  reduction against Pseudomonas Aeruginosa: < 2 Log
Staphylococcus Aureus
  reduction against Staphylococcus Aureus: ~3 Log

## CC(C)O [commercial 70% Iso-Propyl Alcohol, Iso-Propyl Alcohol]
[1]
  ATP reading after treatment: 22 RLU

## OO [hydrogen peroxide with no other additive, hydrogen peroxide]
[2]
  ATP reading after treatment: 82 RLU
